In US9487749B2 (priority 2009, dated 2016):

Tests used:
[1] = test system: Bifidobacterium bifidum; assay: Growth of Bifidobacterium bifidum in MRS broth fortified with MSM (anaerobic); assay type: cell-based
Protocol: Each organism (Lactobacillus rhamnosus, Lactobacillus acidophilus, and Bifidobacterium bifidum) was grown in MRS bacterial growth medium (broth) and plated on MRS agar at different time intervals. Results are expressed in colony forming units per milliliter (cfu/mL). […] All bacterial organisms were incubated at 35° C. +/−2° C. for the duration of the study. […] All preparations and plating were conducted at room temperature. […] Test samples were plated in triplicate at each test date and the averages are reported. Bifidobacterium bifidum, a common microbe used in probiotics, was also tested. All Bifidobacterium samples were incubated under anaerobic conditions.

[2] = test system: Bifidobacterium bifidum ATCC #29521; assay: Bifidobacterium bifidum growth in media fortified with MSM, 96 hours; assay type: cell-based

SMILES: CS(C)(=O)=O [MSM, Methylsulfonylmethane]
- log increase of Bifidobacterium ([1]; 0.04% MSM): One
- log higher than the 0% MSM control ([1]; 0.04% and 0.2% MSM samples, 48 hours): 1 log
- log increase of Bifidobacterium ([1]; 0.2% MSM): 2 log
- Log Growth of Bifidobacteruim bifidum in Media Fortified with MSM ([2]; 0.125% MSM, Hr 0): 1.12 log
- Log Growth of Bifidobacteruim bifidum in Media Fortified with MSM ([2]; 0.125% MSM, Hr 8): 2.89 log
- Log Growth of Bifidobacteruim bifidum in Media Fortified with MSM ([2]; 0.125% MSM, Hr 16): 7.85 log
- Log Growth of Bifidobacteruim bifidum in Media Fortified with MSM ([2]; 0.125% MSM, Hr 24): 9.06 log
- Log Growth of Bifidobacteruim bifidum in Media Fortified with MSM ([2]; 0.125% MSM, Hr 32): 11.45 log
- Log Growth of Bifidobacteruim bifidum in Media Fortified with MSM ([2]; 0.125% MSM, Hr 40): 10.80 log
- Log Growth of Bifidobacteruim bifidum in Media Fortified with MSM ([2]; 0.125% MSM, Hr 48): 8.22 log
- Log Growth of Bifidobacteruim bifidum in Media Fortified with MSM ([2]; 0.125% MSM, Hr 56): 7.25 log
- Log Growth of Bifidobacteruim bifidum in Media Fortified with MSM ([2]; 0.125% MSM, Hr 64): 8.86 log
- Log Growth of Bifidobacteruim bifidum in Media Fortified with MSM ([2]; 0.125% MSM, Hr 72): 6.59 log
- Log Growth of Bifidobacteruim bifidum in Media Fortified with MSM ([2]; 0.125% MSM, Hr 80): 9.12 log
- Log Growth of Bifidobacteruim bifidum in Media Fortified with MSM ([2]; 0.125% MSM, Hr 88): 9.12 log
- Log Growth of Bifidobacteruim bifidum in Media Fortified with MSM ([2]; 0.125% MSM, Hr 96): <6.00 log
- logs higher than the maximum of the control ([2]; 0.5% MSM): 0.5 logs
- logs higher than the control ([2]; 0.5% MSM, hour 96): approximately 2 logs
- logs of growth ([2]; 0.5% MSM, hour 96): 8.82 logs
- Log Growth of Bifidobacteruim bifidum in Media Fortified with MSM ([2]; 0.5% MSM, Hr 0): 1.00 log
- Log Growth of Bifidobacteruim bifidum in Media Fortified with MSM ([2]; 0.5% MSM, Hr 8): 2.84 log
- Log Growth of Bifidobacteruim bifidum in Media Fortified with MSM ([2]; 0.5% MSM, Hr 16): 7.45 log
- Log Growth of Bifidobacteruim bifidum in Media Fortified with MSM ([2]; 0.5% MSM, Hr 24): 8.81 log
- Log Growth of Bifidobacteruim bifidum in Media Fortified with MSM ([2]; 0.5% MSM, Hr 32): 11.22 log
- Log Growth of Bifidobacteruim bifidum in Media Fortified with MSM ([2]; 0.5% MSM, Hr 40): 12.09 log
- Log Growth of Bifidobacteruim bifidum in Media Fortified with MSM ([2]; 0.5% MSM, Hr 48): 9.39 log
- Log Growth of Bifidobacteruim bifidum in Media Fortified with MSM ([2]; 0.5% MSM, Hr 56): 9.51 log
- Log Growth of Bifidobacteruim bifidum in Media Fortified with MSM ([2]; 0.5% MSM, Hr 64): 10.34 log
- Log Growth of Bifidobacteruim bifidum in Media Fortified with MSM ([2]; 0.5% MSM, Hr 72): 8.35 log
- Log Growth of Bifidobacteruim bifidum in Media Fortified with MSM ([2]; 0.5% MSM, Hr 80): 10.38 log
- Log Growth of Bifidobacteruim bifidum in Media Fortified with MSM ([2]; 0.5% MSM, Hr 88): 9.70 log
- Log Growth of Bifidobacteruim bifidum in Media Fortified with MSM ([2]; 0.5% MSM, Hr 96): 8.82 log
- logs of growth (estimated, outside the countable range) ([2]; 1% MSM, Hour 96): less than 6 logs
- Log Growth of Bifidobacteruim bifidum in Media Fortified with MSM ([2]; 1% MSM, Hr 0): 1.00 log
- Log Growth of Bifidobacteruim bifidum in Media Fortified with MSM ([2]; 1% MSM, Hr 8): 2.73 log
- Log Growth of Bifidobacteruim bifidum in Media Fortified with MSM ([2]; 1% MSM, Hr 16): 7.73 log
- Log Growth of Bifidobacteruim bifidum in Media Fortified with MSM ([2]; 1% MSM, Hr 24): 8.81 log
- Log Growth of Bifidobacteruim bifidum in Media Fortified with MSM ([2]; 1% MSM, Hr 32): 11.49 log
- Log Growth of Bifidobacteruim bifidum in Media Fortified with MSM ([2]; 1% MSM, Hr 40): 11.19 log
- Log Growth of Bifidobacteruim bifidum in Media Fortified with MSM ([2]; 1% MSM, Hr 48): 10.43 log
- Log Growth of Bifidobacteruim bifidum in Media Fortified with MSM ([2]; 1% MSM, Hr 56): 10.57 log
- Log Growth of Bifidobacteruim bifidum in Media Fortified with MSM ([2]; 1% MSM, Hr 64): 10.66 log
- Log Growth of Bifidobacteruim bifidum in Media Fortified with MSM ([2]; 1% MSM, Hr 72): 8.34 log
- Log Growth of Bifidobacteruim bifidum in Media Fortified with MSM ([2]; 1% MSM, Hr 80): 9.43 log
- Log Growth of Bifidobacteruim bifidum in Media Fortified with MSM ([2]; 1% MSM, Hr 88): 10.41 log
- Log Growth of Bifidobacteruim bifidum in Media Fortified with MSM ([2]; 1% MSM, Hr 96): <6.00 log
- log increase of growth ([2]; 1% MSM, listed as order: Hour 80, Hour 88): 1 log
- extension of the stationary phase ([2]; 5% MSM): 40 h
- logs lower than the control ([2]; 5% MSM, Hour 48): 0.7 logs
- Log Growth of Bifidobacteruim bifidum in Media Fortified with MSM ([2]; 5% MSM, Hr 0): 1.12 log
- Log Growth of Bifidobacteruim bifidum in Media Fortified with MSM ([2]; 5% MSM, Hr 8): 2.04 log
- Log Growth of Bifidobacteruim bifidum in Media Fortified with MSM ([2]; 5% MSM, Hr 16): 6.10 log
- Log Growth of Bifidobacteruim bifidum in Media Fortified with MSM ([2]; 5% MSM, Hr 24): 8.43 log
- Log Growth of Bifidobacteruim bifidum in Media Fortified with MSM ([2]; 5% MSM, Hr 32): 11.13 log
- Log Growth of Bifidobacteruim bifidum in Media Fortified with MSM ([2]; 5% MSM, Hr 40): 11.78 log
- Log Growth of Bifidobacteruim bifidum in Media Fortified with MSM ([2]; 5% MSM, Hr 48): 10.70 log
- Log Growth of Bifidobacteruim bifidum in Media Fortified with MSM ([2]; 5% MSM, Hr 56): 10.59 log
- Log Growth of Bifidobacteruim bifidum in Media Fortified with MSM ([2]; 5% MSM, Hr 64): 14.32 log
- Log Growth of Bifidobacteruim bifidum in Media Fortified with MSM ([2]; 5% MSM, Hr 72): 8.65 log
- Log Growth of Bifidobacteruim bifidum in Media Fortified with MSM ([2]; 5% MSM, Hr 80): 12.20 log
- Log Growth of Bifidobacteruim bifidum in Media Fortified with MSM ([2]; 5% MSM, Hr 88): 12.31 log
- Log Growth of Bifidobacteruim bifidum in Media Fortified with MSM ([2]; 5% MSM, Hr 96): 9.60 log
- log increase of growth ([2]; […] MSM, Hour 88): 1 log
- logs higher than the maximum of the control ([2]; […] MSM, maximum): 0.72 logs
- Log Growth of Bifidobacteruim bifidum in Media Fortified with MSM ([2]; […] MSM, Hr 96): <6.00 log
- logs higher in growth rate compared to the control ([2]; […] MSM, listed as order: hour 40, Hour 56 to hour 72): 0.7 logs
- maximum growth reached before the control ([2]; all MSM concentrations (hour 32 vs hour 48)): 16 h
